Results as given in the supplement of paper PMC10307832.

Tests used:
Experiment in all cases: relative viability (nuclei count vs DMSO), 5 days (fraction); higher = more cells survive
[1] = compound: CC(C)C[C@H](NC(=O)[C@H](Cc1ccccc1)NC(=O)c1cnccn1)B(O)O [Bortezomib] + CCNC(=O)c1noc(-c2cc(C(C)C)c(O)cc2O)c1-c1ccc(CN2CCOCC2)cc1 [Luminespib] (partner 0.01 µM)
Summary of the method: (§1)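 Nuclei were stained with Hoechst during a one-step fixation (final 0.05% Triton X-100, 1% formaldehyde, 1 ug/ml Hoechst) carried out 5 days after dosing, then counted on 4× images. The cells, lung cancer lines in 1536-well plates, had been dosed by pin tool the day after seeding with one drug alone or a fixed anchor-drug dose plus five library-drug doses (not always all listed) in √10 steps. Relative viability is the nuclei count in treated wells divided by that in vehicle wells, and each value is the median of duplicate plates.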

[2] = compound: CC(C)C[C@H](NC(=O)[C@H](Cc1ccccc1)NC(=O)c1cnccn1)B(O)O [Bortezomib] + C[C@]1(O)C[C@@H](c2nc(-c3ccc4ccc(-c5ccccc5)nc4c3)c3c(N)nccn32)C1 [Linsitinib] (partner 1 µM)
Summary of the method: as §1

[3] = compound: CC(C)C[C@H](NC(=O)[C@H](Cc1ccccc1)NC(=O)c1cnccn1)B(O)O [Bortezomib] + Nc1ncn([C@H]2C[C@H](O)[C@@H](CO)O2)c(=O)n1 [Decitabine] (partner 2 µM)
Summary of the method: as §1

[4] = compound: COC1=CC(c2cc3ccccc3[nH]2)=N/C1=C\c1[nH]c(C)cc1C [Obatoclax] + CC(=O)c1c(C)c2cnc(Nc3ccc(N4CCNCC4)cn3)nc2n(C2CCCC2)c1=O [Palbociclib] (partner 0.5 µM)
Summary of the method: as §1

With NCI-H650 the relative viability ([1]; first compound 0.000632 µM) was 0.731, the relative viability ([1]; first compound 0.002 µM) was 0.676 and the relative viability ([1]; first compound 0.006325 µM) was 0.469. For the same cell line, the relative viability ([1]; first compound 0.02 µM) was 0.155, the relative viability ([2]; first compound 0.000632 µM) was 0.806 and the relative viability ([2]; first compound 0.002 µM) was 0.811. It also gave a relative viability ([2]; first compound 0.006325 µM) of 0.338, a relative viability ([2]; first compound 0.02 µM) of 0.234 and a relative viability ([3]; first compound 0.0002 µM) of 0.332. The relative viability ([3]; first compound 0.000632 µM) was 0.347, the relative viability ([3]; first compound 0.002 µM) was 0.286 and the relative viability ([3]; first compound 0.006325 µM) was 0.216. It also gave a relative viability ([3]; first compound 0.02 µM) of 0.147, a relative viability ([4]; first compound 0.01 µM) of 0.319 and a relative viability ([4]; first compound 0.03162 µM) of 0.352. For the same cell line, the relative viability ([4]; first compound 0.3162 µM) was 0.178 and the relative viability ([4]; first compound 1 µM) was 0.184.
